Drawing on ChEMBL document CHEMBL1151038, “-Glucan biosynthesis inhibitors isolated from fungi as hyphal malformation inducer” (1993), this text covers inhibition and Activity for 3 compounds.

The test system of assay [1] is Saccharomyces cerevisiae. The experiment in a line: In vitro inhibitory activity of Beta-1,3-glucan synthase of Saccharomyces cerevisiae at concentration of 100 ug/ml.
Assay [2] has as its system Saccharomyces cerevisiae. The experiment in a line: In vitro inhibitory activity of Beta-1,3-glucan synthase of Saccharomyces cerevisiae at concentration of 200 ug/ml.
In assay [3] the test system is Saccharomyces cerevisiae. The experiment in a line: In vitro inhibitory activity of Beta-1,3-glucan synthase of Saccharomyces cerevisiae at concentration of 25 ug/ml.
The test system of assay [4] is Saccharomyces cerevisiae. The experiment in a line: In vitro inhibitory activity of Beta-1,3-glucan synthase of Saccharomyces cerevisiae at concentration of 400 ug/ml.
For assay [5], the system named is Saccharomyces cerevisiae. The experiment in a line: In vitro inhibitory activity of Beta-1,3-glucan synthase of Saccharomyces cerevisiae at concentration of 50 ug/ml.
In assay [6] the test system is Saccharomyces cerevisiae. The experiment in a line: In vitro inhibitory activity of Beta-1,3-glucan synthase of Saccharomyces cerevisiae at concentration of 800 ug/ml.
The test system of assay [7] is Phytophthora capsici. The experiment in a line: Minimum amount required to induce hyphal malformation in Phytophthora capsici. The class given is functional.
Assay [8] deals with Saccharomyces cerevisiae. The experiment in a line: In vitro inhibitory activity of Beta-1,3-glucan synthase of Saccharomyces cerevisiae at concentration of 12.5 ug/ml.

Regarding `C[C@H]1C(=O)C(CO)=C[C@H](O)[C@H]1O`, the inhibition (commonly the share of the control response that was lost under treatment) in assay [1] was found to be 66%; in assay [2], 75%; in assay [3], 30%; in assay [4], 85%; in assay [5] it was 47%; in assay [6], 91%. In assay [8], this compound registered an inhibition of 12%. Moreover, the Activity in assay [7] is on record as 100 ug disk-1.

On to `C[C@H]1CCC/C=C/[C@@H]2C[C@H](O)C[C@H]2[C@H](O)/C=C/C(=O)O1` [BREFELDIN A], for which the inhibition is 0% in assay [1]; 0% in assay [2]; 0% in assay [3]; 6% in assay [4]; 0% in assay [5]; 0% in assay [6]. For the same compound, in assay [8], the inhibition was found to be 0%. The same compound showed an Activity in assay [7] of 50 ug disk-1.

Regarding `CC(C)=C[C@H]1C[C@H](C)[C@]2(CC[C@]3(C)C[C@H]4[C@H](C(=O)C[C@@]4(C)O)/C(C=O)=C\C[C@H]32)O1` [OPHIOBOLIN A], the inhibition turned out to be 74% in assay [1]; 79% in assay [2]; 56% in assay [3]; 84% in assay [4]; 56% in assay [5]; 89% in assay [6]. The same compound registered an inhibition in assay [8] of 31%. Moreover, in assay [7], the Activity was determined as 10 ug disk-1.
